In the NIST ThermoML archive (doi:10.1021/je500542j):
“And” between values parts separate entries of the source, which are not always exact repeats. Identical values can stand only once. ± gives the expanded uncertainty stated by the source. One block for each molecule: values may come before it.

Assay: wn = mass fraction of the nth substance listed
Settings: 101 kPa, Liquid, Vibrating tube method

- mass density (303.15 K, w1 = 0.158): 1037.8 ± 1 kg/m3 and 1038 ± 1 kg/m3
- mass density (313.15 K, w1 = 0.187): 1042.8 ± 1.1 kg/m3
Compound: O=C(O)c1ccccc1C(=O)O [1,2-benzenedicarboxylic acid] + CN1CCCC1=O

- mass density (303.15 K, w1 = 0.1624): 1036.1 ± 1 kg/m3
- mass density (313.15 K, w1 = 0.1957): 1038.5 ± 7.6 kg/m3
Compound: O=C(O)c1cccc(C(=O)O)c1 [1,3-benzenedicarboxylic acid] + CN1CCCC1=O

- mass density (303.15 K, w1 = 0.05896): 1029.5 ± 1 kg/m3
- mass density (313.15 K, w1 = 0.08754): 1031.5 ± 1 kg/m3 and 1038.5 ± 1 kg/m3
Compound: O=C(O)c1ccc(C(=O)O)cc1 [1,4-benzenedicarboxylic acid] + CN1CCCC1=O
